Target: T1, MAT2A (Homo sapiens, UniProt P31153)
T1 construct: His6; made in house; host or cells: SF9 insect cells
Assay: MAT2A biochemical assay (colorimetric inorganic phosphate detection, PiColorLock)
Details: recombinant His6-tagged MAT2A 1 μg/ml; 60 minutes preincubation at 25° C.; L-Met 80 μM, ATP 100 μM; 60 minutes reaction; read at 623 nm; read-out: MAT2A Inhibition Score
Protocol: In the reaction catalyzed by MAT2A enzyme, L-Met and ATP were converted to SAM, inorganic phosphate, and inorganic diphosphate. […] The concentration of malachite green phosphomolybdate produced in the detection reaction is thus directly related to the quantity of product produced by the MAT2A enzyme. Multiple commercial kits exist for this method of phosphate detection and quantification, such as PiColorLock Gold (Innova Biosciences). Typical reaction was performed in 50 μl final volume, containing buffer (Tris, pH 8.0, 50 mM KCl, 15 mM MgCl2, 300 uM EDTA, bovine serum albumin at 0.005% w/v) and 1 μg/ml MAT2A. Compounds were added in 1 μl of DMSO at the desired concentration; a typical dose response curve contained ten points with three-fold dilution between compound concentrations. […] The reaction was allowed to proceed for 60 minutes at room temperature then halted by the addition of 13 μl of PiColor Lock reagent. After a further 5 minutes of incubation at room temperature, […] of PiColor Stabilizer was added and the reactions were further incubated at 25° C. for 25 minutes. […] Recombinant MAT2A protein was expressed in SF9 insect cells and purified by metal chelate affinity chromatography, using methods well known in the art. After expression of His6-tagged MAT2A cells were disrupted by 4 passes through an M-Yl 10 Micro fluidizer (Microfluidics) set to 500 psi, and then centrifuged at 22,000 rcf for 20 min at 4° C. The supernatant was harvested and loaded at 15 cm/h on a Histrap FF 5*1 ml column (GE) which was equilibrated with 50 mM Tris, 500 mM NaCl, pH7.4. Host cell contaminants were removed by washing the column with equilibration buffer followed by equilibration buffer containing 20 mM imidazole and 60 mM imidazole to baseline. MAT2A protein was eluted by the addition of buffer containing 250 mM imidazole, dialized into 50 mM NaCl, 50 mM Tris, pH 7.4, flash frozen in liquid nitrogen, and stored at −80° C. until use.

T1 sequence (P31153 whole entry): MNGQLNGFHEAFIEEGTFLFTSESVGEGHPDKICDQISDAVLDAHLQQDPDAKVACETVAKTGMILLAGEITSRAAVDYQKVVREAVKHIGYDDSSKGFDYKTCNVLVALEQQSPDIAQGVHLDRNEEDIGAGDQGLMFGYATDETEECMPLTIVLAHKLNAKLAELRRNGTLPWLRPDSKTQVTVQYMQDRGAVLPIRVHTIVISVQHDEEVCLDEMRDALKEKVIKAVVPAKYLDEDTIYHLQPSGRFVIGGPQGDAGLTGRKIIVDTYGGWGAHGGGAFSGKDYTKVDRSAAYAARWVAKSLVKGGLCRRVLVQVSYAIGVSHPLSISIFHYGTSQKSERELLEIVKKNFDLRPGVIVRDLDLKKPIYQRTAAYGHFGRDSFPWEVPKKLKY

Compound	IC50
O=c1c(-c2ccc3c(c2)OCCO3)c(CO)[nH]c2c(C3=CCCCC3)c(-c3ccccc3)nn12 [Compound 225, 3-(cyclohex-1-en-1-yl)-6-(2,3-dihydrobenzo[b][1,4]dioxin-6-yl)-5-(hydroxymethyl)-2-phenylpyrazolo[1,5-a]pyrimidin-7(4H)-one]	< 100 nM
Cn1c(CO)c(-c2ccc3ncccc3c2)c(=O)n2nc(-c3ccccc3)c(-c3ccccc3)c12 [Compound 281, 5-(hydroxymethyl)-4-methyl-2,3-diphenyl-6-(quinolin-6-yl)pyrazolo[1,5-a]pyrimidin-7(4H)-one]	< 100 nM
COc1ccc(-c2c(C)[nH]c3c(C4=CCCCC4)c(-c4ccccc4)nn3c2=O)cc1 [Compound 212, 3-(cyclohex-1-en-1-yl)-6-(4-methoxyphenyl)-5-methyl-2-phenylpyrazolo[1,5-a]pyrimidin-7(4H)-one]	< 100 nM
Cc1[nH]c2c(C3=CCCCC3)c(-c3ccccc3)nn2c(=O)c1-c1ccc(O)cc1 [Compound 240, 3-(cyclohex-1-en-1-yl)-6-(4-hydroxyphenyl)-5-methyl-2-phenylpyrazolo[1,5-a]pyrimidin-7(4H)-one]	< 100 nM
COc1ccc(-c2c(Nc3nccnn3)[nH]c3c(C4=CCCCC4)c(-c4ccccc4)nn3c2=O)cc1 [Compound 161, 5-((1,2,4-triazin-3-yl)amino)-3-(cyclohex-1-en-1-yl)-6-(4-methoxyphenyl)-2-phenylpyrazolo[1,5-a]pyrimidin-7(4H)-one]	< 100 nM
COc1ccc(-c2c(Nc3ccccn3)[nH]c3c(C4=CCCCC4)c(-c4ccccn4)nn3c2=O)cc1 [Compound 203, 3-(cyclohex-1-en-1-yl)-6-(4-methoxyphenyl)-2-(pyridin-2-yl)-5-(pyridin-2-ylamino)pyrazolo[1,5-a]pyrimidin-7(4H)-one]	< 100 nM
Cc1[nH]c2c(N3CCC(F)(F)C3)c(-c3ccccc3)nn2c(=O)c1-c1ccc2ncccc2c1 [Compound 316, 3-(3,3-difluoropyrrolidin-1-yl)-5-methyl-2-phenyl-6-(quinolin-6-yl)pyrazolo[1,5-a]pyrimidin-7(4H)-one]	100 to 1000 nM
COc1ccc(-c2c(Nc3nnc(N)s3)[nH]c3c(-c4ccccc4)c(-c4ccccc4)nn3c2=O)cc1 [Compound 145, 5-((5-amino-1,3,4-thiadiazol-2-yl)amino)-6-(4-methoxyphenyl)-2,3-diphenylpyrazolo[1,5-a]pyrimidin-7(4H)-one]	< 100 nM
Cc1[nH]c2c(-c3ccccc3)c(-c3ccc(Cl)cc3)nn2c(=O)c1-c1ccc2ncccc2c1 [Compound 347, 2-(4-chlorophenyl)-5-methyl-3-phenyl-6-(quinolin-6-yl)pyrazolo[1,5-a]pyrimidin-7(4H)-one]	1000 to 10000 nM
O=c1c(-c2ccc(O)cc2)c(O)[nH]c2c(-c3ccccc3)c(-c3ccccc3)nn12 [Compound 273, 5-hydroxy-6-(4-hydroxyphenyl)-2,3-diphenylpyrazolo[1,5-a]pyrimidin-7(4H)-one]	< 100 nM
Cc1[nH]c2c(C3=CCCCC3)c(-c3ccccc3)nn2c(=O)c1-c1ccc(OC(=O)[C@@H](N)C(C)C)cc1 [Compound 294, (S)-4-(3-cyclohexenyl-5-methyl-7-oxo-2-phenyl-4,7-dihydropyrazolo[1,5-a]pyrimidin-6-yl)phenyl 2-amino-3-methylbutanoate]	< 100 nM
COc1ccc(-c2c(Nc3nc(OC)ns3)[nH]c3c(-c4ccccc4)c(-c4ccccc4)nn3c2=O)cc1 [Compound 148, 5-((3-methoxy-1,2,4-thiadiazol-5-yl)amino)-6-(4-methoxyphenyl)-2,3-diphenylpyrazolo[1,5-a]pyrimidin-7(4H)-one]	< 100 nM
Cc1[nH]c2c(-c3ccccc3)c(-c3ccc([N+](=O)[O-])cc3)nn2c(=O)c1-c1ccc2ncccc2c1 [Compound 251, 5-methyl-2-(4-nitrophenyl)-3-phenyl-6-(quinolin-6-yl)pyrazolo[1,5-a]pyrimidin-7(4H)-one]	1000 to 10000 nM
COc1ccc(-c2c(Nc3ccc(F)cn3)[nH]c3c(-c4ccccc4)c(-c4ccccc4)nn3c2=O)cc1 [Compound 105, 5-((5-fluoropyridin-2-yl)amino)-6-(4-methoxyphenyl)-2,3-diphenylpyrazolo[1,5-a]pyrimidin-7(4H)-one]	< 100 nM
Cc1[nH]c2c(N3CCCCC3)c(-c3ccccc3)nn2c(=O)c1-c1ccc2[nH]c(N)nc2c1 [Compound 268, 6-(2-amino-1H-benzo[d]imidazol-5-yl)-5-methyl-2-phenyl-3-(piperidin-1-yl)pyrazolo[1,5-a]pyrimidin-7(4H)-one]	< 100 nM
COc1ccc(-c2c(CO)n(C)c3c(-c4ccccc4)c(-c4ccccc4)nn3c2=O)cc1 [Compound 249, 5-(hydroxymethyl)-6-(4-methoxyphenyl)-4-methyl-2,3-diphenylpyrazolo[1,5-a]pyrimidin-7(4H)-one]	< 100 nM
O=C1NCCN1Cc1[nH]c2c(-c3ccccc3)c(-c3ccccc3)nn2c(=O)c1-c1ccc2ncccc2c1 [Compound 324, 5-((2-oxoimidazolidin-1-yl)methyl)-2,3-diphenyl-6-(quinolin-6-yl)pyrazolo[1,5-a]pyrimidin-7(4H)-one]	1000 to 10000 nM
COc1ccc(-c2c(Nc3nccs3)[nH]c3c(-c4ccccc4)c(-c4ccccc4)nn3c2=O)cc1 [Compound 137, 6-(4-methoxyphenyl)-2,3-diphenyl-5-(thiazol-2-ylamino)pyrazolo[1,5-a]pyrimidin-7(4H)-one]	< 100 nM
O=c1c(-c2ccc3ncccc3c2)c(O)[nH]c2c(-c3ccccc3)c(-c3ccccc3)nn12 [Compound 275, 5-hydroxy-2,3-diphenyl-6-(quinolin-6-yl)pyrazolo[1,5-a]pyrimidin-7(4H)-one]	< 100 nM
Cc1[nH]c2c(-c3ccccc3)c(-c3ccccc3)nn2c(=O)c1-c1ccc2ncnc(N)c2c1 [Compound 330, 6-(4-aminoquinazolin-6-yl)-5-methyl-2,3-diphenylpyrazolo[1,5-a]pyrimidin-7(4H)-one]	100 to 1000 nM
COc1ccc(-c2c(Oc3ccccc3)[nH]c3c(-c4ccccc4)c(-c4ccccc4)nn3c2=O)cc1 [Compound 355, 6-(4-methoxyphenyl)-5-phenoxy-2,3-diphenylpyrazolo[1,5-a]pyrimidin-7(4H)-one]	1000 to 10000 nM
COc1ccc(-c2c(NC(=O)CN)[nH]c3c(-c4ccccc4)c(-c4ccccc4)nn3c2=O)cc1 [Compound 283, 2-amino-N-(6-(4-methoxyphenyl)-7-oxo-2,3-diphenyl-4,7-dihydropyrazolo[1,5-a]pyrimidin-5-yl)acetamide]	< 100 nM
O=c1c(-c2ccc(O)cc2)c(Nc2nc[nH]n2)[nH]c2c(-c3ccccc3)c(-c3ccccc3)nn12 [Compound 195, 5-((1H-1,2,4-triazol-3-yl)amino)-6-(4-hydroxyphenyl)-2,3-diphenylpyrazolo[1,5-a]pyrimidin-7(4H)-one]	< 100 nM
COc1ccc(-c2c(Cn3cnnn3)[nH]c3c(-c4ccccc4)c(-c4ccccc4)nn3c2=O)cc1 [Compound 338, 5-((1H-tetrazol-1-yl)methyl)-6-(4-methoxyphenyl)-2,3-diphenylpyrazolo[1,5-a]pyrimidin-7(4H)-one]	100 to 1000 nM
COc1ccc(-c2c(O)[nH]c3c(C4=CCCCC4)c(-c4ccccc4)nn3c2=O)cc1 [Compound 279, 3-(cyclohex-1-en-1-yl)-5-hydroxy-6-(4-methoxyphenyl)-2-phenylpyrazolo[1,5-a]pyrimidin-7(4H)-one]	< 100 nM
Cc1[nH]c2c(-c3ccccc3)c(-c3ccccc3)nn2c(=O)c1-c1ccc(O)c(Cl)c1 [Compound 239, 6-(3-chloro-4-hydroxyphenyl)-5-methyl-2,3-diphenylpyrazolo[1,5-a]pyrimidin-7(4H)-one]	< 100 nM
CNCc1[nH]c2c(-c3ccccc3)c(-c3ccccc3)nn2c(=O)c1-c1ccc2ncccc2c1 [Compound 278, 5-((methylamino)methyl)-2,3-diphenyl-6-(quinolin-6-yl)pyrazolo[1,5-a]pyrimidin-7(4H)-one]	< 100 nM
O=C1CN(Cc2[nH]c3c(-c4ccccc4)c(-c4ccccc4)nn3c(=O)c2-c2ccc3ncccc3c2)C(=O)N1 [Compound 323, 1-((7-oxo-2,3-diphenyl-6-(quinolin-6-yl)-4,7-dihydropyrazolo[1,5-a]pyrimidin-5-yl)methyl)imidazolidine-2,4-dione]	100 to 1000 nM
COc1ccc(-c2nn3c(=O)c(-c4ccc5ncccc5c4)c(C)[nH]c3c2-c2ccccc2)cn1 [Compound 349, 2-(6-methoxypyridin-3-yl)-5-methyl-3-phenyl-6-(quinolin-6-yl)pyrazolo[1,5-a]pyrimidin-7(4H)-one]	1000 to 10000 nM
Cc1[nH]c2c(-c3ccccc3)c(-c3ccccc3)nn2c(=O)c1-c1ccc(O)c(OCCO)c1 [Compound 261, 6-(4-hydroxy-3-(2-hydroxyethoxy)phenyl)-5-methyl-2,3-diphenylpyrazolo[1,5-a]pyrimidin-7(4H)-one]	< 100 nM

Source: patent publication US10800782B2, “Inhibitors of cellular metabolic processes” (Agios Pharmaceuticals, Inc., priority 2016, dated 2020)
